Test results taken from patent US9440956B2, “Indole, indazole and benzimidazole arylamides as P2X3 and P2X2/3 antagonists” (Roche Palo Alto LLC, priority 2010, dated 2016).

What was measured:
rat P2X3 receptor = molecular target: T1, rat P2X3 receptor (Rattus norvegicus, UniProt P49654); test: P2X3 FLIPR (Fluorometric Imaging Plate Reader) assay; assay type: cell-based; conditions: CHO-K1 cells transfected with cloned rat P2X3; agonist α,β-meATP 1 μM; Fluo-3 calcium fluorescence
T1 construct: expressed in transfected cells; host or cells: CHO-K1
T1 sequence (P49654 1-397): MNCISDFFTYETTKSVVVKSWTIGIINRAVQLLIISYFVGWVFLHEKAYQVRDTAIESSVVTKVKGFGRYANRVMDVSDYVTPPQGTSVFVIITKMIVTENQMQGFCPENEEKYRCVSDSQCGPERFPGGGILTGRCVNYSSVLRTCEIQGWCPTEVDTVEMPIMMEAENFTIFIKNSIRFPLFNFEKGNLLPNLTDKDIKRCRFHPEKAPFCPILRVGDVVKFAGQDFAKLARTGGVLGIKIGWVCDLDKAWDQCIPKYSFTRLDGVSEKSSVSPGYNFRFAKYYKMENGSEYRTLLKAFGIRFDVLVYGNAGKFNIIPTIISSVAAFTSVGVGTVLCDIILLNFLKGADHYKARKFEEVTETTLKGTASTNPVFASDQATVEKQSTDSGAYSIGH
Description: (§1) P2X3/P2X2/3 FLIPR (Fluorometric Imaging Plate Reader) Assay
(§2) CHO-K1 cells were transfected with cloned rat P2X3 or human P2X2/3 receptor subunits and passaged in flasks. 18-24 hours before the FLIPR experiment, cells were released from their flasks, centrifuged, and resuspended in nutrient medium at 2.5×10^5 cells/ml. The cells were aliquoted into black-walled 96-well plates at a density of 50,000 cells/well and incubated overnight in 5% CO2 at 37° C. On the day of the experiment, cells were washed in FLIPR buffer (calcium- and magnesium-free Hank's balanced salt solution, 10 mM HEPES, 2 mM CaCl2, 2.5 mM probenecid; FB). Each well received 100 μl FB and 100 μl of the fluorescent dye Fluo-3 AM [2 μM final conc.]. After a 1 hour dye loading incubation at 37° C., the cells were washed 4 times with FB, and a final 75 μl/well FB was left in each well.
(§3) Test compounds (dissolved in DMSO at 10 mM and serially diluted with FB) or vehicle were added to each well (25 μl of a 4× solution) and allowed to equilibrate for 20 minutes at room temperature. The plates were then placed in the FLIPR and a baseline fluorescence measurement (excitation at 488 nm and emission at 510-570 nm) was obtained for 10 seconds before a 100 μl/well agonist or vehicle addition. The agonist was a 2× solution of α,β-meATP producing a final concentration of 1 μM (P2X3) or 5 μM (P2X2/3). Fluorescence was measured for an additional 2 minutes at 1 second intervals after agonist addition. A final addition of ionomycin (5 μM, final concentration) was made to each well of the FLIPR test plate to establish cell viability and maximum fluorescence of dye-bound cytosolic calcium. Peak fluorescence in response to the addition of α,β-meATP (in the absence and presence of test compounds) was measured and inhibition curves generated using nonlinear regression. PPADS, a standard P2X antagonist, was used as a positive control.

human P2X2/3 receptor = molecular target: T2, human P2X2/3 receptor (Homo sapiens, UniProt P56373+Q9UBL9); test: P2X2/3 FLIPR (Fluorometric Imaging Plate Reader) assay; assay type: cell-based; conditions: CHO-K1 cells transfected with human P2X2/3; agonist α,β-meATP 5 μM; Fluo-3 calcium fluorescence
T2 construct: expressed in transfected cells; host or cells: CHO-K1
T2 sequence (Q9UBL9 1-471): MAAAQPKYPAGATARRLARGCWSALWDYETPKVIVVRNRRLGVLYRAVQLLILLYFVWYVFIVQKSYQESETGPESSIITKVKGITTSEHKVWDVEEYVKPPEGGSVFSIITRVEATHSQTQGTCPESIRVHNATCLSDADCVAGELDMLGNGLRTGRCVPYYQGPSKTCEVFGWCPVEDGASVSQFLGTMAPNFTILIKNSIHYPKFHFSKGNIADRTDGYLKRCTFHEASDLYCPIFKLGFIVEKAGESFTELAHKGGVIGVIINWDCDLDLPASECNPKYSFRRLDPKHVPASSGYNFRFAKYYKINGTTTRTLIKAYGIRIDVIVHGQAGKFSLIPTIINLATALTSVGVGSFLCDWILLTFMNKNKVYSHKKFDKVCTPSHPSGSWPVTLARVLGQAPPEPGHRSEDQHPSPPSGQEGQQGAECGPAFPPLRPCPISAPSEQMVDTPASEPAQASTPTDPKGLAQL
T2 sequence (P56373 1-397): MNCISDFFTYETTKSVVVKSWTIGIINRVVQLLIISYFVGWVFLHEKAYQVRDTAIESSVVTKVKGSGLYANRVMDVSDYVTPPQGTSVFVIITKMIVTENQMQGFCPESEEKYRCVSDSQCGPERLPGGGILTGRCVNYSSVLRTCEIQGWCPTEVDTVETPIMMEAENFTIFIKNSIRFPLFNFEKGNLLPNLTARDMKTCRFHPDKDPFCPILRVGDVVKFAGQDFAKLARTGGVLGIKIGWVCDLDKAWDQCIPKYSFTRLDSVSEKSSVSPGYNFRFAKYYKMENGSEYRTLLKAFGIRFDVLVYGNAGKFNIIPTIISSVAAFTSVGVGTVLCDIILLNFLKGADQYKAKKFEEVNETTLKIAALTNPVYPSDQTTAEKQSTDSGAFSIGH
Description: as §1, §2, §3

## Cc1ccc(-c2cc(C(=O)NCc3cnc(C)cn3)cc3c2cnn3-c2ccccc2C)nc1 [Compound 18, 4-(5-Methyl-pyridin-2-yl)-1-o-tolyl-1H-indazole-6-carboxylic acid (5-methyl-pyrazin-2-ylmethyl)-amide]
Rat P2X3 receptor
  pKi P2X3: 8.01
Human P2X2/3 receptor
  pKi P2X2/3: 7.26

## Cc1ccc(-c2cc(C(=O)N[C@@H](C)CO)cc3c2cnn3-c2ccccc2C)nc1 [Compound 19, 4-(5-Methyl-1-pyridin-2-yl)-1-o-tolyl-1H-indazole-6-carboxylic acid ((S)-2-hydroxy-1-methyl-ethyl)-amide]
Rat P2X3 receptor
  pKi P2X3: 7.98
Human P2X2/3 receptor
  pKi P2X2/3: 6

## Cc1ccc(-c2cc(C(=O)N[C@@H](C)CO)cc3c2cnn3-c2ccccc2C(C)C)nc1 [Compound 20, 1-(2-Isopropyl-phenyl)-4-(5-methyl-pyridin-2-yl)-1H-indazole-6-carboxylic acid ((S)-2-hydroxy-1-methyl-ethyl)-amide]
Rat P2X3 receptor
  pKi P2X3: 7.55
Human P2X2/3 receptor
  pKi P2X2/3: 6.19

## Cc1ccc(-c2cc(C(=O)NCc3cnc(C)cn3)cc3c2ccn3CC(C)C)nc1 [Compound 21, 1-Isobutyl-4-(5-methyl-pyridin-2-yl)-1H-indole-6-carboxylic acid (5-methyl-pyrazin-2-ylmethyl)-amide]
Rat P2X3 receptor
  pKi P2X3: 7.17
Human P2X2/3 receptor
  pKi P2X2/3: 5.92

## Cc1ccc(-c2cc(C(=O)NCc3ccc(C)nn3)cc3c2ccn3C(C)C)nc1 [Compound 25, 1-Isopropyl-4-(5-methyl-pyridin-2-yl)-1H-indole-6-carboxylic acid (6-methyl-pyridazin-3-ylmethyl)-amide]
Rat P2X3 receptor
  pKi P2X3: 7.27
Human P2X2/3 receptor
  pKi P2X2/3: 5.32
